Source: patent publication US20220125051A1, “PRE-HARVEST DESICCATION METHOD” (SYNGENTA CROP PROTECTION AG, priority 2019, published 2022)
Like-named read-outs stand apart in the source and are kept apart here.

Columns and labels:
Assay in all cases: Post-emergence efficacy, Method A
Type in all cases: in vivo
[1] = tested on: Amaranthus palmeri (AMAPA); conditions: Amaranthus palmeri, post-emergence, 312 h; Application Rate 500 g/Ha; evaluated after 13 days; Method A; read-out: Control of weed species after post-emergence application, AMAPA (100=total damage to plant; 0=no damage to plant)
Procedure: (§1) Seeds of a variety of test species were sown in standard soil in pots. After cultivation for 14 days (post-emergence) under controlled conditions in a glasshouse (at 24/16° C., day/night; 14 hours light; 65% humidity), the plants were sprayed with an aqueous spray solution derived from the dissolution of the technical active ingredient formula (I) in a small amount of acetone and a special solvent and emulsifier mixture referred to as IF50 (11.12% Emulsogen EL360 TM+44.44% N-methylpyrrolidone+44.44% Dowanol DPM glycol ether), to create a 50 g/I solution which was then diluted to required concentration using 0.25% or 1% Empicol ESC70 (Sodium lauryl ether sulphate)+1% ammonium sulphate as diluent. The test plants were then grown in a glasshouse under controlled conditions (at 24/16° C., day/night; 14 hours light; 65% humidity) and watered twice daily. After 13 days the test was evaluated (100=total damage to plant; 0=no damage to plant).
(§2) Ipomoea hederacea (IPOHE), Euphorbia heterophylla (EPHHL), Chenopodium album (CHEAL), Amaranthus palmeri (AMAPA), Lolium perenne (LOLPE), Digitaria sanguinalis (DIGSA), Eleusine indica (ELEIN), Echinochloa crus-galli (ECHCG), Setaria faberi (SETFA)

[2] = tested on: Chenopodium album (CHEAL); conditions: Chenopodium album, post-emergence, 312 h; Application Rate 500 g/Ha; evaluated after 13 days; Method A; read-out: Control of weed species after post-emergence application, CHEAL (100=total damage to plant; 0=no damage to plant)
Procedure: as §1, §2

[3] = tested on: Digitaria sanguinalis (DIGSA); conditions: Digitaria sanguinalis, post-emergence, 312 h; Application Rate 500 g/Ha; evaluated after 13 days; Method A; read-out: Control of weed species after post-emergence application, DIGSA (100=total damage to plant; 0=no damage to plant)
Procedure: as §1, §2

[4] = tested on: Echinochloa crus-galli (ECHCG); conditions: Echinochloa crus-galli, post-emergence, 312 h; Application Rate 500 g/Ha; evaluated after 13 days; Method A; read-out: Control of weed species after post-emergence application, ECHCG (100=total damage to plant; 0=no damage to plant)
Procedure: as §1, §2

Eleusine indica (ELEIN) = conditions: Eleusine indica, post-emergence, 312 h; Application Rate 500 g/Ha; evaluated after 13 days; Method A; read-out: Control of weed species after post-emergence application, ELEIN (100=total damage to plant; 0=no damage to plant)
Procedure: as §1, §2

[5] = tested on: Ipomoea hederacea (IPOHE); conditions: Ipomoea hederacea, post-emergence, 312 h, Application Rate 500 g/Ha; evaluated after 13 days; Method A; read-out: Control of weed species after post-emergence application, IPOHE (100=total damage to plant; 0=no damage to plant)
Procedure: as §1, §2

Lolium perenne (LOLPE) = conditions: Lolium perenne, post-emergence, 312 h, evaluated after 13 days
Procedure: as §1, §2

Setaria faberi (SETFA) = conditions: Setaria faberi, post-emergence, 312 h; Application Rate 500 g/Ha; evaluated after 13 days; Method A; read-out: Control of weed species after post-emergence application, SETFA (100=total damage to plant; 0=no damage to plant)
Procedure: as §1, §2

[6] = Application Rate 500 g/Ha, Method A, read-out: Control of weed species after post-emergence application, LOLPE (100=total damage to plant; 0=no damage to plant)

Row | SMILES | pest or weed control at 500 g/ha [1] | pest or weed control at 500 g/ha [2] | pest or weed control at 500 g/ha [3] | pest or weed control at 500 g/ha [4] | pest or weed control at 500 g/ha (Eleusine indica (ELEIN)) | pest or weed control at 500 g/ha [5] | pest or weed control at 500 g/ha (Lolium perenne (LOLPE); [6]) | pest or weed control at 500 g/ha (Setaria faberi (SETFA)) | pest or weed control at 500 g/ha (Lolium perenne (LOLPE); Application rate 500 g/Ha, 100=total damage to plant, 0=no damage to plant, read-out: Control of weed species after post-emergence application, LOLPE)
1 | COC(=O)c1ccc(C[n+]2ccc(-c3ncccn3)cn2)cc1 [Compound A229] | 10% | 0% | 20% | 0% | 0% | 10% | 0% | 10% | –
2 | CC(CC[n+]1ccc(-c2ncccn2)cn1)S(=O)(=O)[O-] (centres unmarked) [Compound A185] | 100% | 80% | 30% | 40% | 30% | 30% | 30% | 50% | –
3 | CCOP(=O)(C[n+]1ccc(-c2ncccn2)cn1)OCC [Compound A230, 1-(diethoxyphosphorylmethyl)-4-pyrimidin-2-yl-pyridazin-1-ium 2,2,2-trifluoroacetate] | 50% | 60% | 70% | 60% | 10% | 20% | 0% | 50% | –
4 | O=P(O)(O)CCC[n+]1ccc(-c2ncccn2)cn1 [Compound A233] | 100% | 100% | 60% | 60% | 50% | 70% | 20% | 70% | –
5 | NC(=O)c1ccc(-c2cc[n+](CCCS(=O)(=O)[O-])nc2)nc1 [Compound A183] | 10% | 0% | 30% | 20% | 10% | 20% | 10% | 10% | –
6 | O=C(O)c1ccc(C[n+]2ccc(-c3ncccn3)cn2)cc1 [Compound A228] | 80% | 60% | 20% | 10% | 10% | 60% | 0% | 10% | –
7 | N#Cc1ccc(-c2cc[n+](CCC(=O)O)nc2)nc1 [Compound A176] | 40% | 30% | 30% | 30% | 70% | 40% | 40% | 40% | –
8 | CC(CS(=O)(=O)[O-])[n+]1ccc(-c2ncccn2)cn1 (centres unmarked) [Compound A181, 2-(4-pyrimidin-2-ylpyridazin-1-ium-1-yl)propane-1-sulfonate] | 90% | 90% | 80% | 100% | 100% | 80% | 90% | 60% | –
9 | O=P([O-])(O)C[n+]1ccc(-c2ncccn2)cn1 [Compound A205, hydroxy-[(4-pyrimidin-2-ylpyridazin-1-ium-1-yl)methyl]phosphinate] | 80% | 60% | 80% | 60% | 60% | 80% | 40% | 80% | –
10 | OCC[n+]1ccc(-c2ncccn2)cn1 [Compound A195, 2-(4-pyrimidin-2-ylpyridazin-1-ium-1-yl)ethanol 2,2,2-trifluoroacetate] | – | 60% | 20% | 10% | 10% | 20% | 0% | – | –
11 | N#Cc1ccc(-c2cc[n+](CCS(=O)(=O)[O-])nc2)nc1 [Compound A169] | 100% | 70% | 50% | 40% | 90% | 40% | 50% | 50% | –
12 | O=S(=O)([O-])CC(O)C[n+]1ccc(-c2ccncn2)cn1 (centres unmarked) [Compound A224] | 100% | 90% | 80% | 40% | 80% | 80% | 40% | 40% | –
13 | O=S(=O)([O-])N1CCCC1C[n+]1ccc(-c2ncccn2)cn1 (centres unmarked) [Compound A222] | 80% | 60% | 90% | 70% | 60% | 70% | 20% | 80% | –
14 | CC(C[n+]1ccc(-c2ccncn2)cn1)C(=O)O (centres unmarked) [Compound A171] | 100% | 80% | 60% | 60% | 80% | 80% | 70% | 60% | –
15 | O=C(O)CC[n+]1ccc(-c2ncccn2)cn1 [Compound A125, 3-(4-pyrimidin-2-ylpyridazin-1-ium-1-yl)propanoic acid 2,2,2-trifluoroacetate] | – | – | – | – | – | – | – | – | 90%
16 | Cc1ccc(-c2cc[n+](CCC(=O)O)nc2)nc1 [Compound A199] | – | 40% | 50% | 20% | 10% | 10% | 0% | 30% | –
17 | CCOP(=O)(O)CCC[n+]1ccc(-c2ncccn2)cn1 [Compound A232] | 100% | 90% | 90% | 100% | 50% | 0% | 20% | 80% | –
18 | Cc1cc(-c2cc[n+](CCS(=O)(=O)[O-])nc2)nc(C)n1 [Compound A231] | 100% | 90% | 80% | 50% | 60% | 60% | 60% | 60% | –
